Source: the supplement of paper PMC10307832

Tests used:
Test in all cases: relative viability (nuclei count vs DMSO), 5 days (fraction); higher = more cells survive
[1] = compound: C1CN(CCN1)C2=CC=C(C=C2)C3=CN4C(=C(C=N4)C5=CC=NC6=CC=CC=C56)N=C3 [DM3189] + COc1cccc2cc(-c3nc([C@H]4CC[C@H](C(=O)O)CC4)n4ncnc(N)c34)[nH]c12 [OSI-027] (partner 0.5 µM)
In short: (§1)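 Dosing by pin tool came one day after lung cancer cell lines were seeded in 1536-well plates, using either one drug or a fixed anchor-drug dose plus five library-drug doses (not always all listed) in √10 steps. After 5 days, nuclei were counted on 4× images. Relative viability is treated-well nuclei count divided by vehicle-well nuclei count, and values are medians of duplicate plates.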

[2] = compound: C1CN(CCN1)C2=CC=C(C=C2)C3=CN4C(=C(C=N4)C5=CC=NC6=CC=CC=C56)N=C3 [DM3189] + Cc1cc(Nc2cc(N3CCN(C)CC3)nc(Sc3ccc(NC(=O)C4CC4)cc3)n2)n[nH]1 [Tozasertib] (partner 0.1 µM)
In short: as §1

[3] = compound: C1CN(CCN1)C2=CC=C(C=C2)C3=CN4C(=C(C=N4)C5=CC=NC6=CC=CC=C56)N=C3 [DM3189] + CC1(C)CCC(c2ccc(Cl)cc2)=C(CN2CCN(c3ccc(C(=O)NS(=O)(=O)c4ccc(N[C@H](CCN5CCOCC5)CSc5ccccc5)c(S(=O)(=O)C(F)(F)F)c4)cc3)CC2)C1 [Navitoclax] (partner 0.5 µM)
In short: as §1

[4] = compound: C1CN(CCN1)C2=CC=C(C=C2)C3=CN4C(=C(C=N4)C5=CC=NC6=CC=CC=C56)N=C3 [DM3189] + CC(=O)Nc1cccc(-n2c(=O)n(C3CC3)c(=O)c3c(Nc4ccc(I)cc4F)n(C)c(=O)c(C)c32)c1 [Trametinib] (partner 0.02 µM)
In short: as §1

[5] = compound: C1CN(CCN1)C2=CC=C(C=C2)C3=CN4C(=C(C=N4)C5=CC=NC6=CC=CC=C56)N=C3 [DM3189] + O=C(c1cc(Cc2n[nH]c(=O)c3ccccc23)ccc1F)N1CCN(C(=O)C2CC2)CC1 [Olaparib] (partner 8 µM)
In short: as §1

Cell Line | relative viability ([1]; first compound 0.08 µM) | relative viability ([1]; first compound 0.253 µM) | relative viability ([1]; first compound 0.8 µM) | relative viability ([1]; first compound 2.53 µM) | relative viability ([2]; first compound 0.08 µM) | relative viability ([2]; first compound 0.253 µM) | relative viability ([2]; first compound 0.8 µM) | relative viability ([2]; first compound 2.53 µM) | relative viability ([3]; first compound 0.08 µM) | relative viability ([3]; first compound 0.253 µM) | relative viability ([3]; first compound 0.8 µM) | relative viability ([3]; first compound 2.53 µM) | relative viability ([4]; first compound 0.08 µM) | relative viability ([4]; first compound 0.253 µM) | relative viability ([4]; first compound 0.8 µM) | relative viability ([5]; first compound 0.08 µM) | relative viability ([5]; first compound 0.253 µM) | relative viability ([5]; first compound 0.8 µM) | relative viability ([4]; first compound 2.53 µM) | relative viability ([5]; first compound 2.53 µM)
NCI-H1666 | 1.01 | 0.941 | 1.1 | 1.01 | 0.602 | 0.648 | 0.737 | 0.565 | 1.11 | 1.09 | 0.895 | 1.17 | 1.03 | 0.951 | 0.863 | 0.714 | 0.682 | 0.691 |  | 
NCI-H1734 | 0.684 | 0.572 | 0.592 | 0.565 | 0.28 | 0.266 | 0.228 | 0.22 | 0.903 | 0.81 | 0.774 | 0.844 | 0.651 | 0.623 | 0.652 | 0.61 | 0.588 | 0.563 | 0.685 | 0.63
NCI-H1755 | 0.732 | 0.688 | 0.574 | 0.786 | 0.475 | 0.493 | 0.453 | 0.524 | 0.926 | 0.904 | 0.701 | 0.965 | 0.786 | 0.801 | 0.725 | 0.821 | 0.831 | 0.717 | 0.836 | 0.922
NCI-H1793 | 0.279 | 0.247 | 0.245 | 0.319 | 0.33 | 0.321 | 0.294 | 0.357 | 0.422 | 0.396 | 0.421 | 0.478 | 0.507 | 0.603 | 0.532 | 0.998 | 0.943 | 0.702 | 0.742 | 1.15
NCI-H1915 | 0.823 | 0.62 | 0.543 | 0.553 | 0.455 | 0.431 | 0.402 | 0.404 | 0.772 | 0.777 | 0.729 | 0.857 | 0.325 | 0.292 | 0.305 | 0.264 | 0.253 | 0.222 | 0.307 | 0.231
NCI-H1944 | 0.513 | 0.397 |  | 0.461 | 0.275 | 0.273 |  | 0.267 | 1.07 | 1.03 |  | 1.15 | 0.463 | 0.422 | 0.42 | 0.385 | 0.405 | 0.35 | 0.413 | 0.378
NCI-H1975 | 1 | 0.627 | 0.666 | 0.514 | 0.652 | 0.693 | 0.649 | 0.541 | 1.16 | 1.08 | 0.858 | 0.821 | 0.37 | 0.367 | 0.316 | 0.952 | 0.777 | 0.646 | 0.299 | 0.639
NCI-H1993 | 0.541 | 0.49 | 0.476 | 0.506 | 0.58 | 0.584 | 0.554 | 0.637 |  | 0.883 | 0.646 | 0.999 | 0.504 | 0.501 | 0.641 | 1.05 | 1.13 | 1.02 | 0.486 | 1.13
